Target: T1, CSF-1R (His-tagged kinase domain, amino acids 568-912) (Homo sapiens, UniProt P07333)
T1 construct: The His-tagged kinase domain of CSF-1R (i.e., amino acids 568-912, GeneBank ID NM_005211); His; made in house; host or cells: baculovirus infected SF+Express insect cells
T1 sequence (P07333 568-912): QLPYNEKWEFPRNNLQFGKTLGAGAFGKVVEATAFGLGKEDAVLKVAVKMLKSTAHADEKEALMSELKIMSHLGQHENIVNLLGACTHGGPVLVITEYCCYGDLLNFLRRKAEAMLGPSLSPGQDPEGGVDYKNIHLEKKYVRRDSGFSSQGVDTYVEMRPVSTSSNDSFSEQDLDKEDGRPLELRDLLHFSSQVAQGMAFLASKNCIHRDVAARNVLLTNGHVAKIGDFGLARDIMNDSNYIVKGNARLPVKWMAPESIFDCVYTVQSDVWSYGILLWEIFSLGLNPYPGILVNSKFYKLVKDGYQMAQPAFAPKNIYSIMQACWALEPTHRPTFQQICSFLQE
Experiment: Assay 2: CSF1R in-vitro AlphaScreen Assay
Assay type: biochemical
Details: phosphorylation of pEY substrate; 0.46 nM CSF-1R, 12 mM ATP in mix
Procedure: Assay 2: CSF1R in-vitro AlphaScreen Assay
Activity of purified CSF-1R was determined in-vitro using an Amplified Luminescent Proximity Homogeneous Assay (ALPHA) (Perkin Elmer, Mass.), which measures phosphorylation of CSF-1R substrate, biotinylated poly-glutamine-tyrosine peptide (pEY-HTRF CisBio 61GT0BLD), as described below. The His-tagged kinase domain of CSF-1R (i e, amino acids 568-912, GeneBank ID NM_005211) was purified from baculovirus infected SF+Express insect cells (1.4×10^6 cells/ml), French pressed and chromatographed through subsequent QIAgen Ni-NTA, Superflow Mono Q HR 10/10, and Superdex 200 SEC columns.
The phosphorylation of the CSF-1R substrate in the presence and absence of the compound of interest was determined. Briefly, 5 ul of Enzyme/Substrate/adenosine triphosphate (ATP) mix consisting of 0.46 nM of purified CSF-1R, 12 nM pEY substrate, and 12 mM ATP in 1.2× buffer was preincubated with 2 ul of compound for 20 minutes at 25° C. Reactions were initiated with 5 ul of Metal mix consisting of 24 mM MgCl2 in 1.2× buffer and incubated at 25° C. for 90 minutes and reactions were stopped by addition of 5 ul of Detection mix consisting of 20 mM HEPES, 102 mM ethylenediamine tetraacetic acid, 1.65 mg/ml BSA, 136 mM NaCl, 40 ug/ml Streptavidin donor beads (Perkin Elmer, Mass., Catalog #6760002), and 40 ug/ml phosphotyrosine-specific antibody coated acceptor beads (Perkin Elmer, Mass., Catalog #6760620). Plates were incubated at 25° C. for 18 hours in the dark. Phosphorylated substrate was detected by an EnVision plate reader (Perkin Elmer) 680 nm excitation, 520-620 nm emission. Data was graphed and IC50s calculated using Excel Fit (Microsoft).

IC50 [nM] | SMILES
13 | COc1cc2nnc(C(N)=O)c(Nc3ccc(C)cc3F)c2cc1N1CCn2cnnc2C1 [Example 31, 6-(5,6-Dihydro[1,2,4]triazolo[4,3-a]pyrazin-7(8H)-yl)-4-[(2-fluoro-4-methylphenyl)amino]-7-methoxycinnoline-3-carboxamide]
8 | COc1cc2nnc(C(N)=O)c(Nc3ccc(C)cc3F)c2cc1N1CCN2C(=NNC2O)C1 (stereo not drawn) [Example 32, 4-[(2-Fluoro-4-methylphenyl)amino]-6-(3-hydroxy-2,5,6,8-tetrahydro[1,2,4]triazolo[4,3-a]pyrazin-7(3H)-yl)-7-methoxycinnoline-3-carboxamide]
12 | COc1cc2nnc(C(N)=O)c(Nc3ccc(C)cc3F)c2cc1N1CCN2CCCC2C1 (stereo not drawn) [Example 33, 4-[(2-Fluoro-4-methylphenyl)amino]-6-(hexahydropyrrolo[1,2-a]pyrazin-2(1H)-yl)-7-methoxycinnoline-3-carboxamide]
< 3 | COc1cc2nnc(C(N)=O)c(Nc3ccc(C)cc3F)c2cc1N1C[C@@H](C)N[C@@H](C)C1 [Example 36, 6-[(3R,5S)-3,5-Dimethylpiperazin-1-yl]-4-[(2-fluoro-4-methylphenyl)amino]-7-methoxycinnoline-3-carboxamide]
71 | COc1cc2nnc(C(N)=O)c(Nc3ccc(C)cc3F)c2cc1N1C[C@@H](C)O[C@@H](C)C1 [Example 37, 6-[(2R,6S)-2,6-Dimethylmorpholin-4-yl]-4-[(2-fluoro-4-methylphenyl)amino]-7-methoxycinnoline-3-carboxamide]
7 | COc1cc2nnc(C(N)=O)c(Nc3ccc(C)cc3F)c2cc1N1CCN(CC(F)(F)F)CC1 [Example 42, 4-[(2-Fluoro-4-methylphenyl)amino]-7-methoxy-6-[4-(2,2,2-trifluoroethyl)piperazin-1-yl]cinnoline-3-carboxamide]
3 | CCOc1cc2nnc(C(N)=O)c(Nc3ccc(C)cc3F)c2cc1N1CCN(CCO)CC1 [Example 43, 7-Ethoxy-4-[(2-fluoro-4-methylphenyl)amino]-6-[4-(2-hydroxyethyl)piperazin-1-yl]cinnoline-3-carboxamide]
16 | COc1cc2nnc(C(N)=O)c(Nc3ccc(F)cc3F)c2cc1N1C[C@@H](C)N[C@@H](C)C1 [Example 44, 4-[(2,4-Difluorophenyl)amino]-6-[(3R,5S)-3,5-dimethylpiperazin-1-yl]-7-methoxycinnoline-3-carboxamide]
6 | COc1cc2nnc(C(N)=O)c(Nc3cccc(Cl)c3F)c2cc1N1C[C@@H](C)N[C@@H](C)C1 [Example 45, 4-[(3-Chloro-2-fluorophenyl)amino]-6-[(3R,5S)-3,5-dimethylpiperazin-1-yl]-7-methoxycinnoline-3-carboxamide]
33 | COc1cc2nnc(C(N)=O)c(Nc3ccc(C)cc3F)c2cc1C1CCN(S(C)(=O)=O)CC1 [Example 50, 4-[(2-Fluoro-4-methylphenyl)amino]-7-methoxy-6-[1-(methylsulfonyl)piperidin-4-yl]cinnoline-3-carboxamide]

SMILES | IC50 [nM]
COc1cc2nnc(C(N)=O)c(Nc3ccc(C)cc3F)c2cc1C1=CCN(C(C)C)CC1 [Example 29, 4-[(2-Fluoro-4-methylphenyl)amino]-6-(1-isopropyl-1,2,3,6-tetrahydropyridin-4-yl)-7-methoxycinnoline-3-carboxamide] | 7
COc1cc2nnc(C(N)=O)c(Nc3ccc(C)cc3F)c2cc1C1=CCN(CCO)CC1 [Example 34, 4-[(2-Fluoro-4-methylphenyl)amino]-6-[1-(2-hydroxyethyl)-1,2,3,6-tetrahydropyridin-4-yl]-7-methoxycinnoline-3-carboxamide] | 5

Reference: patent US20110098283A1, “3-CINNOLINECARBOXAMIDE DERIVATIVES AND THEIR USE FOR TREATING CANCER” (ASTRAZENECA AB, priority 2007, published 2011)
